The test concerns the target T1, cloned human dopamine D3 receptors (Homo sapiens, UniProt P35462).
T1 construct: expressed in transfected cells; membrane homogenate
As to the kind of experiment: [N-Methyl-3H]Spiroperidol binding to cloned human dopamine D3 receptors (Protocol 1). In outline:
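Membranes from CHO cells stably expressing cloned human D3 receptor were used for [N-methyl-3H]spiroperidol (60-90 Ci/mmol) binding. Assay buffer was 0.05 M Tris HCl pH 7.7 with 120 mM NaCl, 5 mM KCl, 2 mM CaCl2 and 1 mM MgCl2, optionally 0.1% ascorbic acid; total ligand concentration calculated from added CPM.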

Setting [1] is: the 14th table, read-out: D3 Ki.
Where [2] appears, read: the 13th table, unit inferred, read-out: D3Ki.
Setting [3] is: the 18th table, read-out: D3 Ki.

Where two headings read alike, the source gives them in different places.

T1 sequence (P35462 whole entry): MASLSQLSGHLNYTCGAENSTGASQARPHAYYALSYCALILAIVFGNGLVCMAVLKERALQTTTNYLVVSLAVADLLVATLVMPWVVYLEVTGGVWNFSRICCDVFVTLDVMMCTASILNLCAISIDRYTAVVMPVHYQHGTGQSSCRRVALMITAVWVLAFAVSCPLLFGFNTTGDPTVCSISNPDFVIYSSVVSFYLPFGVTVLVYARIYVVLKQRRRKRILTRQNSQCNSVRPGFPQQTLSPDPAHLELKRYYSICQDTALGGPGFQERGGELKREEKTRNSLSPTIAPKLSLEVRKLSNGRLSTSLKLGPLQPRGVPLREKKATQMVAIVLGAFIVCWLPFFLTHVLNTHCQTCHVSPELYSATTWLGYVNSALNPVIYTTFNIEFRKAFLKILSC

For `O=C(NC(CO)CCCN1CCN(c2csc3cc(C(F)(F)F)ccc23)CC1)c1cc2ccccc2s1` (centres unmarked) [compound 815684], the Ki reads like this: (Table 2, read-out: D3K1) 208 nM; (read-out: D3K1) 208 nM; under setting [1], 208 nM.

Consider `O=C(NCCCCN1CCCN(c2csc3cc(F)ccc23)CC1)c1c[nH]c2ccccc12` [S977822], for which, under setting [2], the Ki worked out at 4.12 nM.

With `O=C(NCCCCN1C2CCC1CC(c1noc3cc(F)ccc13)C2)c1ccc(-c2ccccc2)cc1` (centres unmarked) [compound 816331], the Ki (the 15th table, read-out: D3 Ki) came out at 44.2 nM.

For the molecule `Cc1nc(Cl)c(Cl)n1CCCNC[C@@H]1C[C@H]1CN1CCN(c2csc3cc(C(F)(F)F)ccc23)CC1` [compound 832817], the Ki (the 23rd table, read-out: D3 Ki) worked out at 36.5 nM.

For `O=C(NCC1CCC1CN1CCN(c2csc3cc(C(F)(F)F)ccc23)CC1)c1cc2ccccc2[nH]1` (centres unmarked) [compound 826290], where the note is “read-out: D3K1”, the Ki was 72 nM.

As to `C[C@@H]1CN(c2csc3cc(F)ccc23)C[C@H](C)N1CCCCNC(=O)c1ccncc1` [compound 826947], where the note is “the 21st table, read-out: D3 Ki”, the Ki was 47.6 nM.

`O=C(NCc1sccc1CN1CCN(c2csc3cc(F)ccc23)CC1)c1ccc2ccccc2c1` [compound 826300]: the Ki under setting [3] was 36 nM.

Turning to `O=C(NCCCCN1CCCN(c2csc3cc(F)ccc23)CC1)c1ccno1` [S981836], the Ki under setting [2] came to 46 nM.

For the molecule `CS(=O)(=O)c1sc(C(=O)NCc2sccc2CN2CCN(c3csc4cc(F)ccc34)CC2)c2c1C=CCC2` [compound 826315], under setting [3], the Ki was determined as 31 nM.

Regarding `O=C(NC/C=C\CN1CCN(c2csc3cc(C(F)(F)F)ccc23)CC1)c1cccc(F)c1` [compound 826342], where the note is “read-out: D3K1”, the Ki worked out at 47 nM.

Regarding `CCCCc1ccc(C(=O)NCCCCN2CCN(c3noc4ccsc34)CC2)cc1` [compound 829685], the Ki (the 22nd table, read-out: D3 Ki) was determined as 149 nM.

On to `O=C(N[C@@H](CO)CCCN1CCN(c2csc3cc(C(F)(F)F)ccc23)CC1)c1cc2ccccc2[nH]1` [compound 815674], for which the Ki reads like this: (Table 2, read-out: D3K1) 314 nM; (read-out: D3K1) 314 nM; under setting [1], 314 nM.

With `O=C(NCCCCCN1CCN(c2csc3cc(C(F)(F)F)ccc23)CC1)c1ccc2[nH]ccc2c1` [compound 826799], the Ki (read-out: D3K1) amounted to 6.48 nM and the Ki under setting [1] stood at 6.48 nM.

Turning to `O=C(NC/C=C\CN1CCN(c2csc3cc(C(F)(F)F)ccc23)CC1)c1ccccc1` [compound 826337], the Ki (read-out: D3K1) worked out at 29 nM.

Take `CC1=C(C(=O)NCC(CO)CCN2CCN(c3csc4cc(C(F)(F)F)ccc34)CC2)Cc2ccccc21` (centres unmarked) [818934ES]: the Ki (Table 2, read-out: D3K1) amounted to 218 nM.

Turning to `O=C(Nc1cccc(CN2CCN(c3csc4cc(F)ccc34)CC2)c1)c1cccc(F)c1` [compound 822164], under “the 19th table, read-out: D3 Ki”, the Ki was 167 nM.

Consider `O=C(NCCCCN1CCCN(c2csc3cc(F)ccc23)CC1)c1cccnc1Oc1ccccc1` [S981834], for which the Ki under setting [2] is 1.1 nM.

As to `Cc1ccccc1C(=O)NCCCCCCN1CCN(c2csc3cc(C(F)(F)F)ccc23)CC1` [compound 826753], the Ki was 4.4 nM (read-out: D3K1) and 4.4 nM under setting [1].

In the case of `O=C(NCC(CO)CCN1CCN(c2csc3cc(C(F)(F)F)ccc23)CC1)c1c(F)cc(F)cc1F` (centres unmarked) [818923ES], the Ki (Table 2, read-out: D3K1) came out at 319 nM.

As to `O=C(NCc1ccoc1CN1CCN(c2csc3cc(F)ccc23)CC1)c1ccc(-c2ccccc2)cc1` [compound 825848], the Ki (the 20th table, read-out: D3 Ki) amounted to 250 nM.

As to `O=C(N[C@H](CO)CCCN1CCN(c2csc3cc(C(F)(F)F)ccc23)CC1)c1ccc2[nH]ccc2c1` [compound 815700], the Ki runs as follows: (Table 2, read-out: D3K1) 128 nM; (read-out: D3K1) 128 nM; under setting [1], 128 nM.

Consider `O=C(NCCCCCCN1CCN(c2csc3cc(C(F)(F)F)ccc23)CC1)c1ccc2cc[nH]c2c1` [compound 826742], for which the Ki by setting is: (read-out: D3K1) 1.7 nM; under setting [1], 1.7 nM.

With `O=C(NCCCCN1CCCN(c2csc3cc(C(F)(F)F)ccc23)CC1)c1cccc2[nH]ccc12` [S980650], the Ki under setting [2] came to 43 nM.

Regarding `COc1ccc(C(=O)NC(CO)CCCN2CCN(c3csc4cc(C(F)(F)F)ccc34)CC2)cc1OC` (centres unmarked) [compound 815689], the Ki by setting is: (Table 2, read-out: D3K1) 225 nM; (read-out: D3K1) 225 nM; under setting [1], 225 nM.

These data come from US7550469B2, “Heterocyclic amide derivatives and their use as dopamine D3 receptor ligands” (Aventis Pharmaceuticals Inc., priority 2001, dated 2009).
